Results taken from patent publication US8546443B2, “Benzylic oxindole pyrimidines” (Boehringer Ingelheim International GmbH, priority 2010, dated 2013).

Columns and labels:
[1] = molecular target: T1, cytoplasmic kinase domain of human IGF-1R (IGF-1R-GST) (Homo sapiens, UniProt P08069); experiment: Insulin-like growth factor-1 receptor (IGF-1R) kinase assay (DELFIA); format: biochemical; settings: IGF-1R-GST kinase activity, read-out: IGF1R IC50
T1 construct: cytoplasmic kinase domain of human IGF-1R (amino acids 964-1370); GST (glutathione-S-transferase); made in house; host or cells: High Five insect cells (Invitrogen)
T1 sequence (P08069 964-1367 limits assumed): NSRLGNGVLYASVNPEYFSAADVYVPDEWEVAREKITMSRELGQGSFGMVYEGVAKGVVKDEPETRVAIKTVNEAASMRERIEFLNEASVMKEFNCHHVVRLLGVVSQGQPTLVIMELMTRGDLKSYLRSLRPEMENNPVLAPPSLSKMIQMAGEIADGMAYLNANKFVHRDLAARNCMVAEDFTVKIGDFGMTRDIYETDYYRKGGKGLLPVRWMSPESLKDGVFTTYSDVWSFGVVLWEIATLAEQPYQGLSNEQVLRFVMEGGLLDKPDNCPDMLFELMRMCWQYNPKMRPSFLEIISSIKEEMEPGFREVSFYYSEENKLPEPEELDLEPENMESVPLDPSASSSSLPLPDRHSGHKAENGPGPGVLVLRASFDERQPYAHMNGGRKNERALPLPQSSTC
Outline: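 GST-tagged IGF-1R cytoplasmic kinase domain phosphorylates pEY with biotinylated pEY for 40 min at RT; EDTA stop. Product captured on streptavidin, detected with europium anti-phosphotyrosine antibody by DELFIA time-resolved fluorescence; IC50 from inhibition curves.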

[2] = system: TC-71 (Ewing's sarcoma) cells; experiment: Cell proliferation assay, TC-71 (Alamar Blue); format: cell-based; settings: 72 h with compound, EC50 ranges as class symbols
Description: Cell Proliferation Assays
Compounds were tested for their anti-proliferative effects in the TC-71 (Ewing's sarcoma) and HCT 116 (colorectal carcinoma) cancer cell lines in vitro. Published scientific data has described that interference with the Insulin-like Growth Factor-1 Receptor (IGF-1R) signaling pathway reduces the proliferation of TC-71 cells. Therefore TC-71 cells served as a positive control cell line for monitoring the activity of compounds against IGF-1R-mediated cell proliferation. […] Therefore the HCT 116 cell line served as a negative control.
2000 TC-71 cells or 1000 HCT 116 cells were seeded per well in 180 μL IMDM+10% foetal calf serum (FCS)+ penicillin/streptomycin into 96-well microtitre plates. The plates were placed in a cell culture incubator (37° C. in a humidified atmosphere of […]/5 CO2) overnight. The following day, serial dilutions of compounds, prepared in duplicates, were transferred onto the cell layers (controls without compound). The cells were cultivated for a further 72 h in the cell culture incubator. 20 μL of Alamar Blue™ (Serotec Ltd, Düsseldorf, Germany) was added to each well and the plates incubated for 7 h in the cell culture incubator. Fluorescence (extinction wavelength of 544 nm and emission at 590 nm) was then measured and the normalized data fitted by iterative calculation with a sigmoidal curve analysis program (Graph Pad Prism) with a variable Hill slope to determine the IC50 values.

Row | Compound | IC50 [1] [nM] | EC50 [2] [nM]
1 | Cc1cc(C2CCN(S(C)(=O)=O)CC2)ccc1Nc1ncc(Cl)c(NCc2cccc3c2C(C)(C)C(=O)N3)n1 [Example I-203] | 14 | 250 to 3000
2 | COCCN1CCC(c2ccc(Nc3ncc(Cl)c(NCc4cccc5c4C(C)(C)C(=O)N5)n3)cc2)CC1 [Example I-204] | 2 | 50 to 250
3 | COCCN1CCC(c2ccc(Nc3ncc(Br)c(NCc4cccc5c4C(C)(C)C(=O)N5)n3)cc2)CC1 [Example I-208] | 0.68 | 50 to 250
4 | CC1(C)C(=O)Nc2cccc(CNc3nc(Nc4ccc(C5CCN(CCO)CC5)cc4)ncc3Br)c21 [Example I-209] | 1 | 50 to 250
5 | CC(C)(O)CN1CCC(c2ccc(Nc3ncc(Cl)c(NCc4cccc5c4C(C)(C)C(=O)N5)n3)cc2)CC1 [Example I-211] | 3 | 50 to 250
6 | CC1(C)C(=O)Nc2cccc(CNc3nc(Nc4ccc(C5CCN(CCCF)CC5)cc4)ncc3Br)c21 [Example I-212] | 3 | 50 to 250
7 | CC1(C)C(=O)Nc2cccc(CNc3nc(Nc4ccc(C5CCN(CCCF)CC5)cc4)ncc3Cl)c21 [Example I-213] | 4 | 50 to 250
8 | Cc1cc(C2CCN(CCO)CC2)ccc1Nc1ncc(Br)c(NCc2cccc3c2C(C)(C)C(=O)N3)n1 [Example I-214] | 0.62 | < 50
9 | COCCN1CCC(n2cc(Nc3ncc(Cl)c(NCc4cccc5c4C(C)(C)C(=O)N5)n3)cn2)CC1 [Example I-215] | 12 | 250 to 3000
10 | Cc1cc(C2CCN(CCS(C)(=O)=O)CC2)ccc1Nc1ncc(Cl)c(NCc2cccc3c2C(C)(C)C(=O)N3)n1 [Example I-216] | 2 | 50 to 250
11 | Cc1cc(C2CCN(CCO)CC2)ccc1Nc1ncc(Cl)c(NCc2cccc3c2C(C)(C)C(=O)N3)n1 [Example I-217] | 1 | 50 to 250
12 | COCCN1CCC(c2ccc(Nc3ncc(Cl)c(NCc4cccc5c4C(C)(C)C(=O)N5)n3)c(C)c2)CC1 [Example I-218] | 1 | < 50
13 | Cc1cc(C2CCN(CC(N)=O)CC2)ccc1Nc1ncc(Cl)c(NCc2cccc3c2C(C)(C)C(=O)N3)n1 [Example I-220] | 2 | 50 to 250
14 | COCC(=O)N1CCC(c2ccc(Nc3ncc(Cl)c(NCc4cccc5c4C(C)(C)C(=O)N5)n3)c(C)c2)CC1 [Example I-292] | 5 | 50 to 250
15 | CCNC(=O)N1CCC(c2ccc(Nc3ncc(Cl)c(NCc4cccc5c4C(C)(C)C(=O)N5)n3)c(C)c2)CC1 [Example I-293] | 10 | 50 to 250
16 | Cc1cc(C2CCN(C(N)=O)CC2)ccc1Nc1ncc(Cl)c(NCc2cccc3c2C(C)(C)C(=O)N3)n1 [Example I-294] | 7 | 250 to 3000
17 | CNC1(C(=O)N2CCC(c3ccc(Nc4ncc(Cl)c(NCc5cccc6c5C(C)(C)C(=O)N6)n4)c(C)c3)CC2)CC1 [Example I-295] | 4 | 50 to 250
18 | COc1cc(C2CCN(C(=O)CO)CC2)ccc1Nc1ncc(Cl)c(NCc2cccc3c2C(C)(C)C(=O)N3)n1 [Example I-296] | 1 | 50 to 250
19 | Cc1cc(C2CCN(C(=O)C(C)(C)O)CC2)ccc1Nc1ncc(Cl)c(NCc2cccc3c2C(C)(C)C(=O)N3)n1 [Example I-297] | 9 | 50 to 250
20 | Cc1cc(C2CCN(C(=O)CO)CC2)ccc1Nc1ncc(Cl)c(NCc2cccc3c2C(C)(C)C(=O)N3)n1 [Example I-298] | 7 | 50 to 250
21 | CNC1(C(=O)N2CCC(c3ccc(Nc4ncc(Cl)c(NCc5cccc6c5C(C)(C)C(=O)N6)n4)cc3)CC2)CC1 [Example I-299] | 8 | < 50
22 | Cc1cc(Nc2ncc(C(F)(F)F)c(NCc3cccc4c3C(C)(C)C(=O)N4)n2)ccc1C1CCN(CC(C)(C)O)CC1 [Example I-303] | 0.2 | < 50
23 | Cc1cc(C2CCN(C)CC2)ccc1Nc1ncc(C(F)(F)F)c(NCc2cccc3c2C(C)(C)C(=O)N3)n1 [Example I-308] | 0.8 | < 50
24 | CC(C)(O)CN1CCC(c2ccc(Nc3ncc(C(F)(F)F)c(NCc4cccc5c4C(C)(C)C(=O)N5)n3)c(OC(F)F)c2)CC1 [Example I-310] | 5 | 50 to 250
25 | Cc1cc(Nc2ncc(C(F)(F)F)c(NCc3cccc4c3C(C)(C)C(=O)N4)n2)c(F)cc1C1CCN(CC(C)(C)O)CC1 [Example I-311] | 15 | 50 to 250
26 | Cc1cc(C2CCN(CC(C)(C)O)CC2)c(C)cc1Nc1ncc(C(F)(F)F)c(NCc2cccc3c2C(C)(C)C(=O)N3)n1 [Example I-312] | 27 | 50 to 250
27 | Cc1c(Nc2ncc(C(F)(F)F)c(NCc3cccc4c3C(C)(C)C(=O)N4)n2)ccc(C2CCN(CC(C)(C)O)CC2)c1C [Example I-313] | 0.5 | < 50
28 | CCc1cc(C2CCN(CC(C)(C)O)CC2)ccc1Nc1ncc(C(F)(F)F)c(NCc2cccc3c2C(C)(C)C(=O)N3)n1 [Example I-314] | 5 | 50 to 250
29 | Cc1cc(C2CCN(CC(O)C(F)(F)F)CC2)ccc1Nc1ncc(Cl)c(NCc2cccc3c2C(C)(C)C(=O)N3)n1 (centres unmarked) [Example I-326] | 2 | 50 to 250
30 | Cc1cc(C2CCN(C)CC2)ccc1Nc1ncc(Cl)c(NCc2cccc3c2C(C)(C)C(=O)N3)n1 [Example I-332] | 1 | < 50

The remaining lines, values ahead:

Row | IC50 [1] [nM] | EC50 [2] [nM] | Compound
31 | 0.69 | < 50 | Cc1cc(C2CCN(C)CC2)ccc1Nc1ncc(Br)c(NCc2cccc3c2C(C)(C)C(=O)N3)n1 [Example I-103]
32 | 0.1 | < 50 | COc1cc(N2CCN(C)CC2)ccc1Nc1ncc(C(F)(F)F)c(NCc2cccc3c2C(C)(C)C(=O)N3)n1 [Example I-104]
33 | 4 | 250 to 3000 | COc1cc(N2CCN(C)CC2)ccc1Nc1ncc(C(F)(F)F)c(NCc2cccc3c2C2(CC2)C(=O)N3)n1 [Example I-160]
34 | 0.47 | < 50 | CC(C)(O)CN1CCC(c2ccc(Nc3ncc(Br)c(NCc4cccc5c4C(C)(C)C(=O)N5)n3)cc2)CC1 [Example I-210]
35 | 0.98 | < 50 | COCCN1CCC(c2ccc(Nc3ncc(Br)c(NCc4cccc5c4C(C)(C)C(=O)N5)n3)c(C)c2)CC1 [Example I-221]
36 | 11 | < 50 | COc1cc(C2CCN(C(=O)C(C)(C)O)CC2)ccc1Nc1ncc(Cl)c(NCc2cccc3c2C(C)(C)C(=O)N3)n1 [Example I-300]
37 | 0.6 | < 50 | COc1cc(C2CCN(CC(C)(C)O)CC2)ccc1Nc1ncc(C(F)(F)F)c(NCc2cccc3c2C(C)(C)C(=O)N3)n1 [Example I-302]
38 | 1 | < 50 | COc1cc(N2CCN(CC(C)(C)O)CC2)ccc1Nc1ncc(C(F)(F)F)c(NCc2cccc3c2C(C)(C)C(=O)N3)n1 [Example I-304]
39 | 2 | 50 to 250 | Cc1cc(N2CCN(CC(C)(C)O)CC2)ccc1Nc1ncc(C(F)(F)F)c(NCc2cccc3c2C(C)(C)C(=O)N3)n1 [Example I-305]
40 | 1 | < 50 | Cc1cc(N2CCN(C)CC2)ccc1Nc1ncc(C(F)(F)F)c(NCc2cccc3c2C(C)(C)C(=O)N3)n1 [Example I-307]
41 | 1 | < 50 | Cc1cc(C2CCN(CC(C)(C)O)CC2)ccc1Nc1ncc(C(F)(F)F)c(NCc2cccc3c2C(C)(C)C(=O)N3)n1 [Example I-309]
42 | 6 | < 50 | Cc1cc(N2CCN(CC(C)(C)O)CC2)ccc1Nc1ncc(Br)c(NCc2cccc3c2C(C)(C)C(=O)N3)n1 [Example I-317]
43 | 2 | < 50 | Cc1cc([C@H]2CCCN(CC(C)(C)O)C2)ccc1Nc1ncc(Br)c(NCc2cccc3c2C(C)(C)C(=O)N3)n1 [Example I-319]
44 | 0.9 | < 50 | Cc1cc([C@@H]2CCCN(CC(C)(C)O)C2)ccc1Nc1ncc(Br)c(NCc2cccc3c2C(C)(C)C(=O)N3)n1 [Example I-320]
45 | 2 | < 50 | COc1cc(N2CCN(CC(C)(C)O)CC2)ccc1Nc1ncc(Br)c(NCc2cccc3c2C(C)(C)C(=O)N3)n1 [Example I-321]
46 | 0.9 | < 50 | COc1cc(C2CCN(CC(C)(C)O)CC2)ccc1Nc1ncc(Br)c(NCc2cccc3c2C(C)(C)C(=O)N3)n1 [Example I-323]
47 | 0.1 | < 50 | Cc1cc(Nc2ncc(Br)c(NCc3cccc4c3C(C)(C)C(=O)N4)n2)ccc1C1CCN(CC(C)(C)O)CC1 [Example I-324]
48 | 3 | < 50 | Cc1cc(N2CCN(C)CC2)ccc1Nc1ncc(Cl)c(NCc2cccc3c2C(C)(C)C(=O)N3)n1 [Example I-330]
49 | 1 | < 50 | COc1cc(C2CCN(CC(C)(C)O)CC2)ccc1Nc1ncc(Cl)c(NCc2cccc3c2C(C)(C)C(=O)N3)n1 [Example I-331]
